Literature values as cited in patent publication US20240066021A1, “METHODS FOR OPTIMIZING CFTR-MODULATOR THERAPY” (Children's Hospital Medical Center, priority 2021, published 2024).

Tests used:
[1] = biological target: T1, UFO (Homo sapiens, UniProt P30530); conditions: Target UFO, Gene Symbol AXL
T1 sequence (P30530 26-894): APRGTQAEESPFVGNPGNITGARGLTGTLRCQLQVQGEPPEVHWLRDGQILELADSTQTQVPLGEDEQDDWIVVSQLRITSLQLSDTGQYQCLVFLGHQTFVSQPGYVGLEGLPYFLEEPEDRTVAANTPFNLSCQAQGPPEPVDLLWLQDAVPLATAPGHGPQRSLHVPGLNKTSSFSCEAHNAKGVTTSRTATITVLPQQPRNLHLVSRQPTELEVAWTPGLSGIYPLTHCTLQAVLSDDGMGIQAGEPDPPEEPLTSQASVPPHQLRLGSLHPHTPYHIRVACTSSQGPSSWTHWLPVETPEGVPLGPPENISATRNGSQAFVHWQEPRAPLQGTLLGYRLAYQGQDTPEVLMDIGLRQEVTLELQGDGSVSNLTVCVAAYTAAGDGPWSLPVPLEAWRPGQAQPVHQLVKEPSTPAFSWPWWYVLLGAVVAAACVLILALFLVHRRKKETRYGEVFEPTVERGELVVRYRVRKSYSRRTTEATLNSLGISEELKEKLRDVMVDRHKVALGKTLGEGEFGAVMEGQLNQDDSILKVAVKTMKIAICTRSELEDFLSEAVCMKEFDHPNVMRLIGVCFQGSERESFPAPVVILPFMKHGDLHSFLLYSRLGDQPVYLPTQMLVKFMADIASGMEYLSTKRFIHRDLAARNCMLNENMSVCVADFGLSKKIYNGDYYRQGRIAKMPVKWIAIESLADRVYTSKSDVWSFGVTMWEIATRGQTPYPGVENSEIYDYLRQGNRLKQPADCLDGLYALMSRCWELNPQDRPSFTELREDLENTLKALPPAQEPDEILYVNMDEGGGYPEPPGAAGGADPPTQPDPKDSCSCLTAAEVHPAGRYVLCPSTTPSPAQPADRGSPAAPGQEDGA

[2] = biological target: CENP-E (Homo sapiens, UniProt Q02224); conditions: Target CENP-E, Gene Symbol CENPE
Chain of CENP-E (Q02224 whole entry): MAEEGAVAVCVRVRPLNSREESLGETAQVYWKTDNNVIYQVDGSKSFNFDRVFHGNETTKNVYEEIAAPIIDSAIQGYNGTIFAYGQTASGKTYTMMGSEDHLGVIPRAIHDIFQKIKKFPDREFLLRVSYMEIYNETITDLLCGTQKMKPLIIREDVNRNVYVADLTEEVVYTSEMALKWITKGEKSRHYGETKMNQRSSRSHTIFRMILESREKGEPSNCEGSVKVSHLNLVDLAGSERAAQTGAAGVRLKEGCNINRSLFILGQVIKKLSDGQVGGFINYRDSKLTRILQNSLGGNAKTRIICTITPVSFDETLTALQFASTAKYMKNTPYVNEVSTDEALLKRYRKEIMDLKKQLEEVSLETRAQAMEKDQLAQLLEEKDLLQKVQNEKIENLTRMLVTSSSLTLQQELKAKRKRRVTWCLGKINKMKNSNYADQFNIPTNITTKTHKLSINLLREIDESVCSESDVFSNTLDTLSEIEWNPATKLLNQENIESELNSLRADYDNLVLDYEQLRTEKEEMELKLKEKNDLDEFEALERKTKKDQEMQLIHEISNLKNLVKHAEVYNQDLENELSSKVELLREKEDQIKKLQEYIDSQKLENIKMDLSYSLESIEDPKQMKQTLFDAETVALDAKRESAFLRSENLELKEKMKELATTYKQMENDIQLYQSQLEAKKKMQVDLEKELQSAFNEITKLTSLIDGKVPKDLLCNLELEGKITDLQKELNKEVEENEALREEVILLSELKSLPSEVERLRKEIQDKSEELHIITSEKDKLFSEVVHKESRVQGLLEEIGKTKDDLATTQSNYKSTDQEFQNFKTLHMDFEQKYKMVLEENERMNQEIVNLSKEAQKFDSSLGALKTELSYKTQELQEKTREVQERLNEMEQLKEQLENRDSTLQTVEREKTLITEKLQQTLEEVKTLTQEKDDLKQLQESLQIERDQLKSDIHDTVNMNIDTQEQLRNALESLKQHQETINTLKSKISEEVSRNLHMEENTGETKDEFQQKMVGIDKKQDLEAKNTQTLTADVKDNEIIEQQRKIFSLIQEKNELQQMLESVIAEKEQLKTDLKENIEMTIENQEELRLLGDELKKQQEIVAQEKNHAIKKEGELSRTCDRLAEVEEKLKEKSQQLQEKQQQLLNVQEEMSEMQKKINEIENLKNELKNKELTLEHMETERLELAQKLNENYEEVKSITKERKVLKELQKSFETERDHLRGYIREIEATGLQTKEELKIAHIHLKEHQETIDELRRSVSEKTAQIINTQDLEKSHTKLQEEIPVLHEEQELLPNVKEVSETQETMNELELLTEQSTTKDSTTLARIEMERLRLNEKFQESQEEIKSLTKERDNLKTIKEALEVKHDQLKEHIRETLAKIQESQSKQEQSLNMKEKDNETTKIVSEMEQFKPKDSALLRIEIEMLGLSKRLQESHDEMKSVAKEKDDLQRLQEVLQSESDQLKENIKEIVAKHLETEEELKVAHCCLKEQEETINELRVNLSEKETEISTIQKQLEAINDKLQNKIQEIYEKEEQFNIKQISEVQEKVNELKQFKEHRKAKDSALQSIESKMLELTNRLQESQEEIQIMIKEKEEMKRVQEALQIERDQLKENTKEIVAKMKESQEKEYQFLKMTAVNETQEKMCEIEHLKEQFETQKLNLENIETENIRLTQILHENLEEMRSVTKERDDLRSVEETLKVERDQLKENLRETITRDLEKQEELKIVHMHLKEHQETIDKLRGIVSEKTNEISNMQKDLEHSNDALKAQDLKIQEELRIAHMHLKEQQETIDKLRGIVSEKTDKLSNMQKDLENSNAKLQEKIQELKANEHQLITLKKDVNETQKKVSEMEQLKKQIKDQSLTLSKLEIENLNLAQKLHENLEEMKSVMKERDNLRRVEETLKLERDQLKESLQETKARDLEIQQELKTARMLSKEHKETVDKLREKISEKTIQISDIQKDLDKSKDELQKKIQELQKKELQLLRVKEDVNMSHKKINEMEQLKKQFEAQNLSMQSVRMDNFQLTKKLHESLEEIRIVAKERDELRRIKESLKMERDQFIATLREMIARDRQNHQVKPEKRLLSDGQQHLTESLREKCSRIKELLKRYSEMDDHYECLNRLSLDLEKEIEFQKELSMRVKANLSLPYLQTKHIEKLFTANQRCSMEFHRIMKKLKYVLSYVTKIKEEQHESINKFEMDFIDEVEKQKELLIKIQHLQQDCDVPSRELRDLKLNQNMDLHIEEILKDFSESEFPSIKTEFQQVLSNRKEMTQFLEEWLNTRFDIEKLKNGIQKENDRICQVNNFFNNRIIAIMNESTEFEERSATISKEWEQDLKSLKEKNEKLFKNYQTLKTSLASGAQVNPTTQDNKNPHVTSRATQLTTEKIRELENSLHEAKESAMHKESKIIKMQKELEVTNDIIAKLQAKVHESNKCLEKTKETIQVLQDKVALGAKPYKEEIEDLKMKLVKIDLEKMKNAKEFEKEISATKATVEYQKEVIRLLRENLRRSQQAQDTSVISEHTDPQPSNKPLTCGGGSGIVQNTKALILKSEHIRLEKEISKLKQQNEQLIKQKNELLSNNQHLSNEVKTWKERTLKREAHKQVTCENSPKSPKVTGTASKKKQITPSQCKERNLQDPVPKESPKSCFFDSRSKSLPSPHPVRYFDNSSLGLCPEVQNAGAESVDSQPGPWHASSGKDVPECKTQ

Row | Effect [1] | Effect [2] | Structure (SMILES)
1 | Inhibition | – | COc1cc2c(Oc3ccc(NC(=O)C4(C(=O)Nc5ccc(F)cc5)CC4)cc3F)ccnc2cc1OCCCN1CCOCC1 [Foretinib]
2 | – | Inhibition | CC(C)Oc1ccc(C(=O)N[C@H](CNC(=O)CN(C)C)Cc2ccc(-c3cn4cccc([C@H](C)O)c4n3)cc2)cc1Cl [GSK-923295]
